These results are taken from US11225642B2, “Method for producing renal progenitor cells” (KYOTO UNIVERSITY, priority 2013, dated 2022).

The test system of experiment [1] is OSR1-GFP & SIX2-tdTomato reporter human iPS cell line (4A6C3-10). Briefly: SIX2-positive cell induction method 4, OSR1+SIX2+ cell rate by flow cytometer. The experiment is classed as cell-based. Here is the method: 4A6C3-10 was cultured at 37° C. in a 2% to 5% CO2 atmosphere to become 70% to 80% confluent on 10-cm dishes containing a primate ES medium (ReproCELL) supplemented with 500 U/ml penicillin/streptomycin (Invitrogen) and 5 ng/ml recombinant human basic fibroblast growth factor (bFGF, Wako) with the use of ICR-mouse-embryo (fetus 12.5 days old)-derived mouse embryonic fibroblasts (MEF) or SNL feeder cells (McMahon, A. P. and Bradley, A. (1990) Cell 62; 1073-1085) (these cells being previously treated with 15.5 μg/ml mitomycin (Kyowa Hakko Kirin Co., Ltd.) for 2 to 3 hours and seeded at a density of 2×10^5 cells/6-cm dish) as feeder cells. The 10-cm plates containing the cells were rinsed with PBS and treated with a CTK solution (PBS containing 0.25% Trypsin (Invitrogen), 0.1% Collagenase IV (Invitrogen), 20% KnockOut SR (KSR, Invitrogen), and 1 mM CaCl2) at 37° C. for 4 minutes. The CTK solution was removed by rinsing with PBS. Then, the medium was exchanged with DMEM/F12+Glutamax (Invitrogen) containing 0.1 mM MEM NEAA (Invitrogen), 1000 U/ml penicillin/streptomycin, 0.55 mM 2-mercaptoethanol (Invitrogen), and 20% KSR. Subsequently, the cells were scraped using a cell scraper and seeded on 6-cm plates coated with 0.2% gelatin to remove feeder cells. One hour later, the cells were washed with DMEM/F12+Glutamax [stage-1 medium] containing 500 U/ml penicillin/streptomycin and 2% FBS (HyClone), transferred to ultra-low attachment dishes (Corning 3471) having a stage-1 medium containing 100 ng/ml recombinant human/mouse/rat Activin A (R&D Systems) and 1 μM CHIR99021, and cultured at 37° C. in a 5% CO2 atmosphere for 2 days.
In order to differentiate into the intermediate mesoderm, the cell mass (embryoid body (EB)) obtained at stage 1 was transferred to a 24-well plate coated with Synthemax II (Corning), the medium was exchanged with DMEM/F12+Glutamax containing 0.1 mM MEM NEAA, 500 U/ml penicillin/streptomycin, 0.55 mM 2-mercaptoethanol, 10% KSR, 100 ng/ml BMP7 (recombinant human BMP7, R&D Systems), and 1 μM CHIR99021, and the cells were cultured at 37° C. in a 5% CO2 atmosphere for 3 days.
After stage 2, the medium was exchanged with DMEM/F12+Glutamax containing 0.1 mM MEM NEAA, 500 U/ml penicillin/streptomycin, 0.55 mM 2-mercaptoethanol, 10% KSR, 1 μM TTNPB (Sigma T3757), and 5 ng/ml TGFβ1 (Peprotech), followed by culturing at 37° C. in a 5% CO2 atmosphere for 5 days. The medium was exchanged with a medium having the same conditions two days after the start of culture (i.e., day 8 from the start of stage 1 (day 1)).
After stage 3, the medium was exchanged with DMEM/F12+Glutamax containing 0.1 mM MEM NEAA, 500 U/ml penicillin/streptomycin, 0.55 mM 2-mercaptoethanol, 10% KSR, 5 ng/ml TGFβ1, and 0.5 μM DMH1 (Tocris), followed by culturing at 37° C. in a 5% CO2 atmosphere for 17 days (i.e., culturing for 28 days in total from the start of stage 1 (day 1); FIG. 3A). In this case, the medium was exchanged every 3 days with a medium having the same conditions. […] In addition, the OSR1^+SIX2^+ cell rate reached the maximum level on day 25 of culture and then it was confirmed to be maintained until day 28 of culture (FIG. 3D).
Induction of OSR1^+SIX2^+ cells from the 4A6C3-10 iPS cell line was examined using different combinations of TGFβ signaling activators and BMP inhibitors. Specifically, induction of OSR1^+SIX2^+ cells from 4A6C3-10 was examined under conditions 1) to 10) described below. […]

Experiment [2] has as its system OSR1-GFP & SIX2-tdTomato reporter human iPS cell line. Briefly: SIX2-positive cell induction method 1, SIX2-tdTomato-positive cell rate by flow cytometer. It counts as cell-based. The following applies: for SIX2-positive cell rate: induction method 1 stage 3, Dorsomorphin replaced with 0.5 μM LDN193189 and TGFβ1 with 10 ng/ml TGFβ2 or TGFβ3. Here is the method: The OSR1-GFP & SIX2-tdTomato reporter human iPS cell line obtained by the method in Example 1 was cultured at 37° C. in a 2-5% CO2 atmosphere to become confluent on 10-cm dishes containing a primate ES/iPS cell medium (ReproCELL) supplemented with 5 ng/ml bFGF (Wako) with the use of SNL cells (McMahon, A. P. and Bradley, A. (1990) Cell 62; 1073-1085) (the cells being treated with 15.5 μg/ml mitomycin (Kyowa Hakko Kirin Co., Ltd.) for 2 to 3 hours and seeded at a density of 3×10^5 cells/10-cm dish) as feeder cells. A CTK solution (2.5% Trypsin (Invitrogen), 1 mg/ml Collagenase IV (Invitrogen), 0.1 M CaCl2, 10 mL KnockOut SR (Invitrogen), and 29.5 mL H2O) was added to dissociate the cells. After removal of the feeder cells, the dissociated cells were suspended in a DMEM/F12 medium containing 1 μM CHIR99021 (Stemgent, 04-0004), 100 ng/ml Activin A (R&D Systems, 338-AC), 1% GlutaMAX (100×) (Invitrogen, 35050-061), 2% FBS (Hyclone), and 0.5% PenStrep (Invitrogen, 10565). Then, the cell suspensions were transferred to a low cell binding plate (LOW CELL BIND 6 WELL DISH (Nunc, 145383)) such that each well contained one-third to one-sixth of the cell suspension obtained from the 10-cm dish, followed by suspension culture at 37° C. in a 5% CO2 atmosphere for 2 days.
The cell mass obtained at stage 1 was transferred to a 24-well or 6-well dish coated with Matrigel (BD Matrigel Matrix Growth Factor Reduced (BD Biosciences, 356230) (the dish being coated with 0.2 mg/ml Matrigel in DMEM and treated at 37° C. for 30 minutes or at 4° C. overnight) or a 24-well or 6-well dish coated with Synthemax (Corning Synthemax II-SC Substrate (Corning, 3535XX1)) (the dish being coated with Synthemax diluted 40-fold with sterile water and treated at room temperature for 2 hours). The medium was exchanged with a DMEM/F12 medium containing 1 μM CHIR99021, 100 ng/ml BMP7 (Recombinant human BMP7 (R&D Systems, 3534-BP)), 0.1% 2-mercaptoethanol (1000×) (Invitrogen, 21985), 1% GlutaMAX (100×), 10% KnockOut SR (Invitrogen), 0.1 mM MEM NEAA (Invitrogen, 11140), and 0.5% PenStrep, followed by adhesion culture at 37° C. in a 5% CO2 atmosphere for 3 to 6 days. In the case of culture for 3 days or more, the medium was exchanged every 3 days with a medium having the same conditions.
The medium was removed from the cells obtained at stage 2. The cells were washed with PBS and then the medium was exchanged with a DMEM/F12 medium containing 5 ng/ml TGFβ1 (Peprotech, 100-21C), 0.5 μM Dorsomorphin (AMPK Inhibitor, Compound C (Merck, 171260)), 0.1% 2-mercaptoethanol (1000×), 1% GlutaMAX (100×), 10% KnockOut SR, 0.1 mM MEM NEAA, and 0.5% PenStrep, followed by suspension culture at 37° C. in a 5% CO2 atmosphere for 15 to 22 days. In this case, the medium was exchanged every 3 days with a medium having the same conditions.
At stage 3 of SIX2-positive cell induction method 1, Dorsomorphin was replaced with 100 ng/ml Noggin (Peprotech), 0.5 μM LDN193189 (Axon MedChem, 1509), or 0.5 μM DMH1 (Tocris, 4126) for differentiation induction in the aforementioned manner.
At stage 3 of SIX2-positive cell induction method 1, TGFβ1 was exchanged with 50 μM IDE1 (Tocris) or 50 μM IDE2 (Tocris) for differentiation induction in the aforementioned manner.
At stage 3 of SIX2-positive cell induction method 1, Dorsomorphin was replaced with 0.5 μM LDN193189, while TGFβ1 with 10 ng/ml TGFβ2 (Peprotech) or 10 ng/ml TGFβ3 (R&D), for differentiation induction in the aforementioned manner. As a result, the SIX2-positive cell rates were 8.6% and 9.3%, respectively (FIGS. 2G and 2H).
A general note: A flow cytometer gives signals particle by particle.

The mark [3] stands for this setting: induction method 1 stage 3, Dorsomorphin replaced with 100 ng/ml Noggin, 0.5 μM LDN193189 or 0.5 μM DMH1, with TGFβ1.
Setting [4] is: induction method 1 stage 3, TGFβ1 exchanged with 50 μM IDE1 or 50 μM IDE2, with Dorsomorphin.

As to `CC(C)Oc1ccc(-c2cnc3c(-c4ccnc5ccccc45)cnn3c2)cc1` [DMH1, 4-[6-[4-(1-Methylethoxy)phenyl]pyrazolo[1,5-a]pyrimidin-3-yl]-quinoline], the “induction of OSR1+SIX2+ cells” value in experiment [1] (Example 8, comparison of combinations of TGFβ signaling activators and BMP inhibitors at stage 4 (FIG. 4)) is reported as “effective”. Also, the “OSR1-positive and SIX2-positive (OSR1+SIX2+) cell rate” value in experiment [1] (induction method 4, stage 4 medium with 5 ng/ml TGFβ1 and 0.5 μM DMH1, day 28 of culture) worked out at 32.8%. In addition, the SIX2-tdTomato-positive cell rate in experiment [2] (setting [3]) was found to be 15.4%.
In experiment [2] (setting [4]), `O=C(O)CCCCCC(=O)N/N=C\c1ccccc1C(=O)O` [IDE1, (Z)-2-((2-(6-carboxyhexanoyl)hydrazono)methyl)benzoic acid] had an SIX2-tdTomato-positive cell rate of 8.4%.
In the case of `O=C(O)CCCCCC(=O)NN=C1CCCC1` [IDE2, 7-(2-cyclopentylidenehydrazinyl)-7-oxoheptanoic acid], in experiment [2] (setting [4]), the SIX2-tdTomato-positive cell rate came to 39.4%.
For `c1ccc2c(-c3cnn4cc(-c5ccc(N6CCNCC6)cc5)cnc34)ccnc2c1` [LDN193189, 4-(6-(4-(piperazin-1-yl)phenyl)pyrazolo[1,5-a]pyrimidin-3-yl)quinoline], the SIX2-tdTomato-positive cell rate in experiment [2] (setting [3]) is 20.4%.
Regarding `NC(=O)c1ccc(-c2nc(-c3ccc4c(c3)OCO4)c(-c3ccccn3)[nH]2)cc1` [SB431542], the “differentiation into OSR1+SIX2+ cells” value in experiment [1] (stage 4 medium with 10 μM SB431542 together with 5 ng/ml TGFβ1 and 0.5 μM DMH1 (condition 11)) is “inhibited”.

B1: TGFβ2: TGFβ signaling activator protein (Peprotech) (protein, UniProt P61812 303-414, looked up)
Transforming growth factor …: ALDAAYCFRNVQDNCCLRPLYIDFKRDLGWKWIHEPKGYNANFCAGACPYLWSSDTQHSRVLSLYNTINPEASASPCCVSQDLEPLTILYYIGKTPKIEQLSNMIVKSCKCS
For the molecule B1, the SIX2-positive cell rate in experiment [2] was determined as 8.6%.

B2: Noggin: BMP inhibitor protein (Peprotech) (protein, UniProt Q13253 28-232, looked up)
Noggin: QHYLHIRPAPSDNLPLVDLIEHPDPIFDPKEKDLNETLLRSLLGGHYDPGFMATSPPEDRPGGGGGAAGGAEDLAELDQLLRQRPSGAMPSEIKGLEFSEGLAQGKKQRLSKKLRRKLQMWLWSQTFCPVLYAWNDLGSRFWPRYVKVGSCFSKRSCSVPEGMVCKPSKSVHLTVLRWRCQRRGGQRCGWIPIQYPIISECKCSC
Regarding B2, the SIX2-tdTomato-positive cell rate in experiment [2] (setting [3]) was determined as 7.5%.

B3: TGFβ3: TGFβ signaling activator protein (R&D, Peprotech) (protein, UniProt P10600 301-412, looked up)
Transforming growth factor …: ALDTNYCFRNLEENCCVRPLYIDFRQDLGWKWVHEPKGYYANFCSGPCPYLRSADTTHSTVLGLYNTLNPEASASPCCVPQDLEPLTILYYVGRTPKVEQLSNMVVKSCKCS
On to B3, for which, in experiment [2], the SIX2-positive cell rate came to 9.3%.
